Reference: PubChem BioAssay (NCI)
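Compound exposure: 48 hours, 5 concentrations, 96-well plates. GI50 = concentration required for 50% inhibition of growth. At the TGI there is no net growth.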

Tests used:
Test in all cases: growth of human tumour cells (NCI), 48 h
786-0 renal = system: 786-0 renal
A498 renal = system: A498 renal
A549 NSCLC = system: A549 NSCLC
ACHN renal = system: ACHN renal
BT-549 breast = system: BT-549 breast
CAKI-1 renal = system: CAKI-1 renal
CCRF-CEM leukemia = system: CCRF-CEM leukemia
COLO 205 colon = system: COLO 205 colon
DU-145 prostate = system: DU-145 prostate
EKVX NSCLC = system: EKVX NSCLC
HCC-2998 colon = system: HCC-2998 colon
HCT-116 colon = system: HCT-116 colon
HCT-15 colon = system: HCT-15 colon
HOP-62 NSCLC = system: HOP-62 NSCLC
HOP-92 NSCLC = system: HOP-92 NSCLC
HS 578T breast = system: HS 578T breast
K-562 leukemia = system: K-562 leukemia
KM12 colon = system: KM12 colon
LOX IMVI melanoma = system: LOX IMVI melanoma
M14 melanoma = system: M14 melanoma
MALME-3M melanoma = system: MALME-3M melanoma
MDA-MB-231 breast = system: MDA-MB-231 breast
MDA-MB-435 = system: MDA-MB-435
MOLT-4 leukemia = system: MOLT-4 leukemia
NCI-H23 lung = system: NCI-H23 lung
NCI-H522 lung = system: NCI-H522 lung
NCI/ADR-RES ovarian = system: NCI/ADR-RES ovarian
OVCAR-3 ovarian = system: OVCAR-3 ovarian
OVCAR-4 ovarian = system: OVCAR-4 ovarian
OVCAR-5 ovarian = system: OVCAR-5 ovarian
PC-3 prostate = system: PC-3 prostate
RPMI-8226 leukemia = system: RPMI-8226 leukemia
RXF 393 renal = system: RXF 393 renal
SF-268 CNS = system: SF-268 CNS
SF-295 CNS = system: SF-295 CNS
SF-539 CNS = system: SF-539 CNS
SK-MEL-2 melanoma = system: SK-MEL-2 melanoma
SK-MEL-28 melanoma = system: SK-MEL-28 melanoma
SK-MEL-5 melanoma = system: SK-MEL-5 melanoma
SK-OV-3 ovarian = system: SK-OV-3 ovarian
SNB-19 CNS = system: SNB-19 CNS
SNB-75 CNS = system: SNB-75 CNS
SR leukemia = system: SR leukemia
SW-620 colon = system: SW-620 colon
TK-10 renal = system: TK-10 renal
U251 CNS = system: U251 CNS
UACC-257 melanoma = system: UACC-257 melanoma
UACC-62 melanoma = system: UACC-62 melanoma
UO-31 renal = system: UO-31 renal

`Cc1ccc2ccc3ccc(C)nc3c2n1.Cc1ccc2ccc3ccc(C)nc3c2n1.Oc1c(Cl)cc(Cl)c2ccc(CN3CCCCC3)nc12.[Ru]` gave a GI50 (786-0 renal) of 0.542 µM, a TGI (786-0 renal) of 1.78 µM and a GI50 (A498 renal) of 1.76 µM. The TGI (A498 renal) was 4.02 µM, the GI50 (A549 NSCLC) was 0.326 µM and the TGI (A549 NSCLC) was 1.28 µM. The GI50 (ACHN renal) was 1.65 µM, the TGI (ACHN renal) was 3.23 µM and the GI50 (BT-549 breast) was 0.337 µM. For the same compound, the TGI (BT-549 breast) was 0.931 µM, the GI50 (CAKI-1 renal) was 1.43 µM and the TGI (CAKI-1 renal) was 2.83 µM. For the same compound, the GI50 (CCRF-CEM leukemia) was 0.423 µM, the TGI (CCRF-CEM leukemia) was 2.2 µM and the GI50 (COLO 205 colon) was 0.195 µM. It also gave a TGI (COLO 205 colon) of 0.429 µM, a GI50 (DU-145 prostate) of 0.494 µM and a TGI (DU-145 prostate) of 4.91 µM. It also gave a GI50 (EKVX NSCLC) of 0.363 µM, a TGI (EKVX NSCLC) of 2.21 µM and a GI50 (HCC-2998 colon) of 0.414 µM. The TGI (HCC-2998 colon) was 1.58 µM, the GI50 (HCT-116 colon) was 0.247 µM and the TGI (HCT-116 colon) was 1.23 µM. For the same compound, the GI50 (HCT-15 colon) was 1.28 µM, the TGI (HCT-15 colon) was 2.77 µM and the GI50 (HOP-62 NSCLC) was 0.409 µM. It also gave a TGI (HOP-62 NSCLC) of 1.41 µM, a GI50 (HOP-92 NSCLC) of 0.109 µM and a TGI (HOP-92 NSCLC) of 0.835 µM. It also gave a GI50 (HS 578T breast) of 0.354 µM, a TGI (HS 578T breast) of 2.32 µM and a GI50 (K-562 leukemia) of 0.253 µM. For the same compound, the TGI (K-562 leukemia) was 1.89 µM, the GI50 (KM12 colon) was 0.411 µM and the TGI (KM12 colon) was 1.52 µM. It also gave a GI50 (LOX IMVI melanoma) of 0.341 µM, a TGI (LOX IMVI melanoma) of 1.23 µM and a GI50 (M14 melanoma) of 0.383 µM. The TGI (M14 melanoma) was 1.44 µM, the GI50 (MALME-3M melanoma) was 0.248 µM and the TGI (MALME-3M melanoma) was 0.666 µM. The GI50 (MDA-MB-231 breast) was 0.295 µM, the TGI (MDA-MB-231 breast) was 0.909 µM and the GI50 (MDA-MB-435) was 0.333 µM. The TGI (MDA-MB-435) was 1.23 µM, the GI50 (MOLT-4 leukemia) was 0.461 µM and the TGI (MOLT-4 leukemia) was 2.22 µM. For the same compound, the GI50 (NCI-H23 lung) was 0.3 µM, the TGI (NCI-H23 lung) was 1.13 µM and the GI50 (NCI-H522 lung) was 0.363 µM. The TGI (NCI-H522 lung) was 2.13 µM, the GI50 (NCI/ADR-RES ovarian) was 2.7 µM and the TGI (NCI/ADR-RES ovarian) was 7.99 µM. It also gave a GI50 (OVCAR-3 ovarian) of 0.387 µM, a TGI (OVCAR-3 ovarian) of 1.38 µM and a GI50 (OVCAR-4 ovarian) of 0.362 µM. It also gave a TGI (OVCAR-4 ovarian) of 1.84 µM, a GI50 (OVCAR-5 ovarian) of 0.599 µM and a TGI (OVCAR-5 ovarian) of 3.01 µM. For the same compound, the GI50 (PC-3 prostate) was 0.303 µM, the TGI (PC-3 prostate) was 1.5 µM and the GI50 (RPMI-8226 leukemia) was 0.223 µM. It also gave a TGI (RPMI-8226 leukemia) of 0.876 µM, a GI50 (RXF 393 renal) of 0.714 µM and a TGI (RXF 393 renal) of 1.99 µM. For the same compound, the GI50 (SF-268 CNS) was 0.447 µM, the TGI (SF-268 CNS) was 2.21 µM and the GI50 (SF-295 CNS) was 0.286 µM. For the same compound, the TGI (SF-295 CNS) was 1.16 µM, the GI50 (SF-539 CNS) was 0.366 µM and the TGI (SF-539 CNS) was 1.29 µM. For the same compound, the GI50 (SK-MEL-2 melanoma) was 0.613 µM, the TGI (SK-MEL-2 melanoma) was 1.84 µM and the GI50 (SK-MEL-28 melanoma) was 0.513 µM. It also gave a TGI (SK-MEL-28 melanoma) of 1.78 µM, a GI50 (SK-MEL-5 melanoma) of 0.675 µM and a TGI (SK-MEL-5 melanoma) of 1.86 µM. It also gave a GI50 (SK-OV-3 ovarian) of 0.293 µM, a TGI (SK-OV-3 ovarian) of 1.07 µM and a GI50 (SNB-19 CNS) of 0.331 µM. The TGI (SNB-19 CNS) was 1.28 µM, the GI50 (SNB-75 CNS) was 0.243 µM and the TGI (SNB-75 CNS) was 1.12 µM. The GI50 (SR leukemia) was 0.345 µM, the TGI (SR leukemia) was 1.75 µM and the GI50 (SW-620 colon) was 0.381 µM. It also gave a TGI (SW-620 colon) of 1.61 µM, a GI50 (TK-10 renal) of 0.734 µM and a TGI (TK-10 renal) of 2.07 µM. It also gave a GI50 (U251 CNS) of 0.218 µM, a TGI (U251 CNS) of 1.16 µM and a GI50 (UACC-257 melanoma) of 0.35 µM. The TGI (UACC-257 melanoma) was 1.23 µM, the GI50 (UACC-62 melanoma) was 0.445 µM and the TGI (UACC-62 melanoma) was 1.67 µM. It also gave a GI50 (UO-31 renal) of 1.72 µM and a TGI (UO-31 renal) of 3.88 µM.
